In article PMC10149936, “Cofilin activation in pancreatic acinar cells plays a pivotal convergent role for mediating CCK-stimulated enzyme secretion and growth” (Frontiers in Physiology, 2023):

Tests used:
[1] = tested on: cofilin (pS3) in rat pancreatic acini; assay: cofilin activation (phospho-pS3 cofilin Western blot) in isolated rat pancreatic acini; type: cell-based; settings: for phosphorylation levels of cofilin with CCK-8 or TPA after cofilin inhibitor / inhibition of cofilin activation stimulated by CCK-8 or TPA: Cytochalasin D 10 µM or Paclitaxel 5 µM, 3 h; for phosphorylation levels of cofilin with CCK-8 or TPA after cofilin inhibitor: CCK-8 0.3 and 100 nM; for phosphorylation levels of cofilin with CCK-8 or TPA after cofilin inhibitor / time of return of cofilin phosphorylation to original basal level: TPA 1 µM; for inhibition of cofilin activation stimulated by CCK-8 or TPA: CCK-8 0.3 or 100 nM 3 min, TPA 1 µM 5 min; for time of return of cofilin phosphorylation to original basal level: CCK-8 0.3 or 100 nM
pancreatic acini = assay: amylase release from pancreatic acini (Phadebas); type: cell-based, rat; settings: for inhibition of amylase secretion stimulated by CCK-8 and TPA / effect on basal amylase release: Cytochalasin D 10 µM or Paclitaxel 5 µM; for inhibition of amylase secretion stimulated by CCK-8 and TPA: 4 h, CCK-8 0.3 and 100 nM; for inhibition of amylase secretion stimulated by CCK-8 and TPA / increase in amylase release: 30 min; for effect on basal amylase release: pancreatic acini (Figure 13A)
Description: Pancreatic acini preparations were obtained by collagenase digestion as previously described ([Bissonnette et al., 1984]; [Sato et al., 1989]; [Ramos-Alvarez and Jensen, 2018]). […] Isolated acini and CCK1-R/Panc-1 cells (M&M 2.2.1) were also preincubated with two SSH1 inhibitors, D3 (25 μM, 1 h) ([Li et al., 2015]) or SE (50 μM, 3 h for acini; 24 h for CCK1-R/Panc-1 cells) ([Lee et al., 2017]). After preincubation, 1 mL aliquots of dispersed acini were incubated at 37°C for 3–15 min with CCK-8 (0.3 nM or 100 nM), for 5–15 min with TPA (1 µM) or without stimulants, used as control. Cells were lysed in lysis buffer (50 mM Tris/HCl pH 7.5, 150 mM NaCl, 1% Triton X-100, 1% deoxycholate, 0.1% sodium azide, 1 mM EGTA, 0.4 mM EDTA, 0.2 mM sodium orthovanadate, 1 mM PMSF, and one protease inhibitor tablet per 10 mL). After sonication, lysates were centrifuged at 10,000×g for 15 min at 4°C and protein concentration was measured using the Bio-Rad protein assay reagent. Finally, cells were processed as below for Western blotting.
Amylase release was performed as described previously ([Sato et al., 1989]; [Ramos-Alvarez and Jensen, 2018]). Amylase activity was determined after 30 min incubation using the Phadebas reagent and was expressed as percentage of the total cellular amylase released into the extracellular medium during the incubation ([Ramos-Alvarez and Jensen, 2018]).
FIGURE 13 Effect of two cofilin inhibitors, Cytochalasin D or Paclitaxel, (A, B), or Cofilin siRNA (C), on the ability of CCK/TPA/A71378-stimulated amylase release form pancreatic acini (A) or AR42J cells (B, C). In (A, B) pancreatic acini and AR42J cells were incubated in the absence or presence of Cytochalasin D (10 µM) or Paclitaxel (5 µM) for 4 h and then incubated with no additions (control) or CCK-8 (0.03, 0.3, 1 and 100 nM), TPA (1 µM) or A71378 (0.03 and 1 nM) for 30 min and then lysed. In (B, C) AR42J cells were treated with Dexamethasone (100 nM) for 72 h, and in (C) AR42J cells were transfected with siRNA Non-targeting Control and siRNA against cofilin for 48 h, and then incubated with no addition (control) or CCK-8 (0.03 and 1 nM) and A71378 (0.03 and 1 nM) for 30 min. Amylase release, expressed as percent of cellular total amylase secreted, was determined after 30 min incubation. Means ± S.E. of at least 3 independent experiments. N.S., No significant.

Compound | phosphorylation levels of cofilin with CCK-8 or TPA after cofilin inhibitor [1] | inhibition of cofilin activation stimulated by CCK-8 or TPA [1] | inhibition of amylase secretion stimulated by CCK-8 and TPA (pancreatic acini; TPA 1 µM) | effect on basal amylase release (pancreatic acini) | time of return of cofilin phosphorylation to original basal level [1] | also measured
CC(=O)O[C@H]1C(=O)[C@@]2(C)[C@H]([C@H](OC(=O)c3ccccc3)[C@]3(O)C[C@H](OC(=O)[C@H](O)[C@@H](NC(=O)c4ccccc4)c4ccccc4)C(C)=C1C3(C)C)[C@]1(OC(C)=O)CO[C@@H]1C[C@@H]2O [Paclitaxel] | significant increase in phosphorylation levels of cofilin | completely inhibited | completely inhibited | Neither of these two cofilin inhibitors influenced basal amylase release | – | –
COOH-terminal octapeptide of cholecystokinin [CCK-8] | – | – | – | – | 60 min | effect on cofilin phosphorylation (pS3) ([1]; 1 min, CCK-8 100 nM, carbachol 1 μM, bombesin 1 nM, secretin 1 nM or VIP 1 nM, n at least 3): rapidly decreased cofilin phosphorylation; concentration with detectible decrease in cofilin phosphorylation ([1]; 3 min): 1 pM; maximal dephosphorylation (i.e., activation) of cofilin ([1]; at 1 nM, 3 min): 62%; share of CCK-8 stimulation of cofilin activation mediated by the high-affinity state CCK1 receptor ([1]; from comparison with CCK-JMV): 58%; share of CCK-8 stimulation of cofilin activation mediated by the low affinity CCK1 receptor state ([1]; from comparison with CCK-JMV): 42%; EC50 ([1]; pS3 cofilin, 3 min incubation, at least 3 experiments, mean ± SEM, read-out: half-maximal effect (EC50) for decrease of cofilin phosphorylation): 1.8 ± 0.1 pM; increase in amylase release (pancreatic acini; CCK-8 0.3 nM): 207%
CCCCCCCCCCCCCC(=O)O[C@@H]1[C@@H](C)[C@@]2(O)[C@@H](C=C(CO)C[C@]3(O)C(=O)C(C)=C[C@@H]23)[C@H]2C(C)(C)[C@]12OC(C)=O [TPA, 12-O-tetradecanoylphobol-13-acetate] | – | – | – | – | 60 min | increase in amylase release (pancreatic acini; TPA 1 µM): 278%
C=C1[C@@H](C)[C@H]2[C@H](Cc3ccccc3)NC(=O)[C@]23[C@H](OC(C)=O)/C=C/[C@@](C)(O)C(=O)[C@@H](C)C/C=C/[C@H]3[C@@H]1O [Cytochalasin D] | significant increase in phosphorylation levels of cofilin | completely inhibited | completely inhibited | Neither of these two cofilin inhibitors influenced basal amylase release | – | –
